Some test systems named below: ACHN renal; HCT-15 colon; K-562 leukemia; KM12 colon; NCI-H23 lung; OVCAR-8 ovarian; SK-OV-3 ovarian; SK-MEL-5 melanoma; UO-31 renal; SR leukemia.
Common to all, as to assay: NCI anticancer screen, dose series, 48 h

SMILES strings stand for the structures.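 Growth conditions: 96-well plates. Treatment: test compound, 48 hours, 5 concentrations. Analysis: linear interpolation between bracketing concentrations; unreached endpoints set to highest concentration. GI50 is the concentration that inhibits growth by half. Definition used: TGI = concentration required for complete inhibition of growth.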

For `CC1OC(OC2CCC3(C=O)C4CCC5(C)C(C6=CC(=O)OC6)CCC5(O)C4CCC3(O)C2)C(O)C(O)C1O` (configuration not stated), the TGI in the assay on ACHN renal worked out at 6.36e-05 µM; in the assay with HCT-15 colon it was 9.68e-05 µM; in the assay with K-562 leukemia, 0.000263 µM; in the assay with KM12 colon, 0.000298 µM; with NCI-H23 lung, 4.11e-05 µM; in the assay with OVCAR-8 ovarian, 6.21e-05 µM. Besides, the TGI in the assay on SK-OV-3 ovarian stood at 0.000102 µM.

With `C/C=C1\C(=O)OC2CCN3CCC(COC(=O)C(C)(O)C(C)C1O)C23` (configuration not stated), the TGI in the assay on ACHN renal, in the assay with HCT-15 colon, in the assay on K-562 leukemia, in the assay on KM12 colon, with NCI-H23 lung and with OVCAR-8 ovarian was > 100 µM each time. Further, the TGI in the assay with SK-MEL-5 melanoma, in the assay on SK-OV-3 ovarian and with UO-31 renal was > 100 µM each time.

With `CCCCCCCCCCCCCc1nn[nH]n1`, the TGI in the assay on ACHN renal was 42.2 µM; in the assay with HCT-15 colon it was 34.6 µM; with KM12 colon, 32.9 µM; with NCI-H23 lung, 44.6 µM; in the assay with OVCAR-8 ovarian, 81.1 µM; in the assay on SK-MEL-5 melanoma it was 32.5 µM. For the same molecule, the results for the TGI in the assay with SK-OV-3 ovarian and with UO-31 renal were 47.3 µM and 29.5 µM, respectively.

As to `C=[CH][Sn]([CH]=C)([O]c1cccc2cccnc12)[O]c1cccc2cccnc12`, the GI50 with ACHN renal was 3.26 µM; with HCT-15 colon it was 2.36 µM; in the assay with K-562 leukemia it was 2.73 µM; in the assay on KM12 colon it was 3.2 µM; in the assay with NCI-H23 lung it was 2.32 µM; with OVCAR-8 ovarian it was 3.76 µM. Besides, the GI50 in the assay on SK-MEL-5 melanoma is 1.94 µM; in the assay with SK-OV-3 ovarian, 14.5 µM; in the assay on UO-31 renal it was 3.25 µM. The TGI with ACHN renal is 14.1 µM; in the assay on HCT-15 colon it was 6.4 µM; in the assay with K-562 leukemia, > 24.9 µM; in the assay with KM12 colon, 7.34 µM; with NCI-H23 lung it was 6.87 µM; in the assay on OVCAR-8 ovarian it was 18.2 µM. Besides, the TGI in the assay with SK-MEL-5 melanoma was 5.44 µM; in the assay with SK-OV-3 ovarian, 44.8 µM; in the assay on UO-31 renal, 9.31 µM.

For `CCOc1ccc(C(CN2CCOCC2)C(C)=O)cc1OC` (configuration not stated), the TGI in the assay on ACHN renal amounted to 27.3 µM; with HCT-15 colon it was 22.5 µM; with K-562 leukemia, 13.9 µM; with KM12 colon it was 29 µM; in the assay with NCI-H23 lung, 32.9 µM; with OVCAR-8 ovarian, 37.7 µM. In addition, the TGI in the assay with SK-MEL-5 melanoma is 35.2 µM; with UO-31 renal it was 27.8 µM.

In the case of `CCCCCCCCCCCCCCCCOC(=O)c1cc(O)cc(C(=O)OCCCCCCCCCCCCCCCC)c1`, the TGI with ACHN renal, in the assay on HCT-15 colon, in the assay on K-562 leukemia, in the assay with KM12 colon, in the assay on NCI-H23 lung and with OVCAR-8 ovarian was > 100 µM in each case. Besides, the TGI in the assay with SK-MEL-5 melanoma, with SK-OV-3 ovarian and in the assay on UO-31 renal was > 100 µM each time.

Turning to `S=c1nc(-c2ccnc(-c3nc(=S)[nH][nH]3)c2)[nH][nH]1`, the TGI with ACHN renal, in the assay with HCT-15 colon, with K-562 leukemia, in the assay with KM12 colon, in the assay on NCI-H23 lung and in the assay with OVCAR-8 ovarian was > 100 µM throughout. Besides, the TGI in the assay on SK-MEL-5 melanoma, in the assay with SK-OV-3 ovarian and with UO-31 renal was > 100 µM throughout.

In the case of `CCOP(=O)(Nc1ccc2oc(=O)c3ccccc3c2c1)OCC`, the TGI in the assay with ACHN renal, in the assay on HCT-15 colon, in the assay on K-562 leukemia, in the assay with NCI-H23 lung, in the assay on OVCAR-8 ovarian and in the assay with SK-MEL-5 melanoma was > 100 µM each time. For the same molecule, the TGI in the assay on SR leukemia is > 100 µM.

As for `COc1cccc(NC(=O)C(=O)C(C(C)=O)c2nc3ccc(Cl)cc3[nH]c2=O)c1` (configuration not stated), the TGI in the assay on ACHN renal, in the assay with HCT-15 colon, with K-562 leukemia, with KM12 colon, with NCI-H23 lung and in the assay on OVCAR-8 ovarian was > 100 µM in each case. Besides, the TGI in the assay on SK-MEL-5 melanoma, with SK-OV-3 ovarian and with UO-31 renal was > 100 µM each time.

As for `N=C1C=C(N)C(=O)c2[nH]c(=O)ccc21`, the TGI came to 3.1 µM in the assay on ACHN renal; 4.06 µM in the assay on HCT-15 colon; 4.4 µM in the assay on K-562 leukemia; 3.21 µM with KM12 colon; 4.09 µM in the assay on NCI-H23 lung; 3.22 µM with SK-MEL-5 melanoma. This molecule had a TGI in the assay with SK-OV-3 ovarian of 26.7 µM.

As for `O=C(Nc1cccc(NC(=O)c2cc(=O)c3ccccc3o2)n1)c1cc(=O)c2ccccc2o1`, the TGI in the assay on ACHN renal, in the assay on HCT-15 colon, in the assay on K-562 leukemia, in the assay on KM12 colon, in the assay on NCI-H23 lung and in the assay on OVCAR-8 ovarian was > 100 µM throughout. Also, the values for the TGI in the assay with SK-MEL-5 melanoma, in the assay on SK-OV-3 ovarian and with UO-31 renal were > 100 µM, > 100 µM and 85.6 µM, respectively.

For `COc1cc2c(c(OC)c1OC)-c1ccc(SC)c(=O)cc1[C@@H](NC(=O)c1ccc(Cl)cc1)CC2`, the TGI was > 100 µM in the assay with ACHN renal; 0.026 µM with HCT-15 colon; > 100 µM in the assay on K-562 leukemia; > 100 µM in the assay on OVCAR-8 ovarian; < 0.01 µM in the assay on SK-MEL-5 melanoma; > 100 µM with SR leukemia. In the assay with UO-31 renal, this molecule yielded a TGI of 62.6 µM.

Consider `Cc1nc(-n2nc(-c3ccccc3)cc2-c2ccccc2)sc1C(/C=C/c1ccc([N+](=O)[O-])cc1)=N/NC(=O)c1ccncc1`, for which the TGI in the assay with ACHN renal was > 100 µM; with HCT-15 colon it was 96.2 µM; in the assay with K-562 leukemia, > 100 µM; in the assay on KM12 colon, 22.4 µM; in the assay with NCI-H23 lung it was 40.6 µM; with OVCAR-8 ovarian, > 100 µM. The values for the TGI in the assay on SK-MEL-5 melanoma, in the assay on SK-OV-3 ovarian and in the assay with UO-31 renal were 63.7 µM, > 100 µM and 90.4 µM, respectively.

With `N[C@@H]1CCCC[C@@H]1N.O=P([O-])([O-])CN(CP(=O)([O-])[O-])CP(=O)([O-])[O-].[Pt+2]`, the GI50 with ACHN renal, with HCT-15 colon, in the assay on K-562 leukemia, in the assay on KM12 colon, in the assay with OVCAR-8 ovarian and in the assay on SK-MEL-5 melanoma was > 100 µM each time. In addition, the GI50 with SK-OV-3 ovarian and in the assay on UO-31 renal was > 100 µM in each case. The TGI in the assay with ACHN renal, in the assay on HCT-15 colon, in the assay with K-562 leukemia, in the assay with KM12 colon, in the assay on OVCAR-8 ovarian and in the assay on SK-MEL-5 melanoma was > 100 µM throughout. In addition, the TGI in the assay with SK-OV-3 ovarian and in the assay on UO-31 renal was > 100 µM each time.

For the origin of these results see PubChem BioAssay (NCI).
